Key:
[1] = tested on: HCV genotype 1a (H77 strain) replicon in HUH-7 cells; experiment: HCV replicon luciferase reporter assay, genotype 1a; assay type: cell-based; conditions: Hepatitis C virus, 72 h, HCV genotype 1a replicon, 3 days incubation, Renilla luciferase, range classes
Description: (§1) An HCV replicon whole cell system was established as described by Lohmann V, Korner F, Koch J, Herian U, Theilmann L, Bartenschlager R., Science 285(5424):110-3 (1999) and modified to introduce a luciferase reporter, as first described by Krieger et al (Krieger N, Lohmann V, and Bartenschlager R, J. Virol. 75(10):4614-4624 (2001)). CDNA encoding a humanized form of the Renilla luciferase gene and a linker sequence fused directly to the 3′-end of the luciferase gene were introduced into the replicon construct using an Asc1 restriction site located in core, directly upstream of the neomycin marker gene. The adaptive mutation at position 1179 (serine to isoleucine) was also introduced (Blight K J, Kolykhalov, A A, Rice, C M, Science 290(5498):1972-1974). A stable cell line constitutively expressing this HCV replicon construct was generated by first linearizing plasmid DNAs with ScaI. RNA transcripts were synthesized in vitro using the T7 MegaScript transcription kit (Ambion, Austin, Tex.) according to manufacturer's directions. In vitro transcripts of the cDNA were transfected into the human hepatoma cell line, HUH-7. […] Resulting cell lines were characterized for positive and negative strand RNA production and protein production over time.
A stable HCV replicon luciferase reporter cell line representing the genotype 1a H77 strain (Yanagi M, Purcell R H, Emerson S U, et al. Transcripts from a single full-length cDNA clone of hepatitis C virus are infectious when directly transfected into the liver of a chimpanzee. Proc Natl Acad Sci USA 1997; 94(16):8738-8743) was generated as described previously for the genotype 1b (Con1) replicon luciferase cell line. The replicon construct was modified by introducing mutations were introduced into the genes encoding the NS3 helicase domain (proline replaced by leucine at position 1496) and NS5A (serine to isoleucine at position 2204) to improve replication in cell culture.
(§2) HCV replicon luciferase assays were developed to monitor the inhibitory effects of compounds described in the disclosure on HCV genotypes 1a and 1b viral replication. HUH-7 cells, constitutively expressing the HCV replicon, were grown in Dulbecco's Modified Eagle Media (DMEM) (Gibco-BRL) containing 10% Fetal calf serum (FCS) (Sigma) and 1 mg/mL G418 (Gibco-BRL). Compounds were serially diluted 3 folds in DMSO for a twenty-point titration and subsequently transferred to sterile 384-well tissue-culture treated plates (Corning cat #3571). The plates were then seeded with 50 μL of cells at a density of 3.0×10^3 cells/well in DMEM containing 4% FCS (final DMSO concentration at 0.5%). After 3 days incubation at 37° C., cells were analyzed for Renilla Luciferase activity using the EnduRen as substrate (Promega cat #E6485). The EnduRen substrate was diluted in DMEM and then added to the plates to a final concentration of 7.5 μM. The plates were incubated for 2 hrs at 37° C. and then read immediately for 30 seconds with Viewlux Imager (PerkinElmer) using a luminescence program. To assess cytotoxicity of compounds, CC50 values were generated by multiplexing the EnduRen-containing plates with Cell Titer-Blue (Promega, cat #G8082). Cell-Titer Blue (3 μL) was added to each well and incubated for 8 hrs at 37° C. The fluorescence signal from each well was read, with an excitation wavelength at 525/10 nm and an emission wavelength of 598/10 nm, using the Viewlux Imager.
(§3) The EC50 values for compounds were calculated by using a four-parameter logistic equation: y=A+((B−A)/(1+((C/x)^D))), where A and B denotes minimal and maximal % inhibition, respectively, C is the EC50, D is the hill slope and x represents compound concentration.

[2] = tested on: HCV genotype 1b (Con1) replicon in HUH-7 cells; experiment: HCV replicon luciferase reporter assay, genotype 1b; assay type: cell-based; conditions: Hepatitis C virus, 72 h, HCV genotype 1b replicon, 3 days incubation, Renilla luciferase, range classes
Description: as §1, with “time. […]” for “time.”
as §2, §3

Q: What does the source list for `COc1ccc2c(O[C@@H]3C[C@H]4C(=O)N[C@]5(C(=O)NS(=O)(=O)C6(C)CC6)C[C@H]5/C=C\[C@H](C)CCC[C@@H](C)[C@H](NC(=O)OC(C)(C)C(F)(F)F)C(=O)N4C3)ncc(OC)c2c1` [Compound 14, 1,1,1-trifluoro-2-methylpropan-2-yl (2R,6S,7R,11R,13aS,14aR,16aS,Z)-2-(4,6-dimethoxyisoquinolin-1-yloxy)-7,11-dimethyl-14a-(1-methylcyclopropylsulfonylcarbamoyl)-5,16-dioxo-1,2,3,5,6,7,8,9,10,11,13a,14,14a,15,16,16a-hexadecahydrocyclopropa[e]pyrrolo[1,2-a][1,4]diazacyclopentadecin-6-ylcarbamate]?
A: EC50 [1]: 2.01 to 5 nM; EC50 [2]: 1.01 to 2 nM

Q: Which results are given for `COc1cc2c(OC)cnc(O[C@@H]3C[C@H]4C(=O)N[C@]5(C(=O)NS(=O)(=O)C6(C)CC6)C[C@H]5/C=C\[C@H](C)CCC[C@@H](C)[C@H](NC(=O)OC(C)(C)C(F)(F)F)C(=O)N4C3)c2cc1F` [Compound 15, 1,1,1-trifluoro-2-methylpropan-2-yl (2R,6S,7R,11R,13aS,14aR,16aS,Z)-2-(7-fluoro-4,6-dimethoxyisoquinolin-1-yloxy)-7,11-dimethyl-14a-(1-methylcyclopropylsulfonylcarbamoyl)-5,16-dioxo-1,2,3,5,6,7,8,9,10,11,13a,14,14a,15,16,16a-hexadecahydrocyclopropa[e]pyrrolo[1,2-a][1,4]diazacyclopentadecin-6-ylcarbamate]?
A: EC50 [1]: 1.01 to 2 nM; EC50 [2]: 1.01 to 2 nM

Q: What does the source list for `COc1ccc2ncc(O[C@@H]3C[C@H]4C(=O)N[C@]5(C(=O)NS(=O)(=O)C6(C)CC6)C[C@H]5/C=C\[C@H](C)CCC[C@@H](C)[C@H](NC(=O)OC(C)(C)C(F)(F)F)C(=O)N4C3)nc2c1` [Compound 17]?
A: EC50 [1]: 5.01 to 68 nM; EC50 [2]: 5.01 to 68 nM

Q: How did the EC50 [1] turn out when `COc1ccc2ncc(O[C@@H]3C[C@H]4C(=O)N[C@]5(C(=O)NS(=O)(=O)C6(C)CC6)C[C@H]5/C=C\[C@@H](C)CCC[C@@H](C)[C@H](NC(=O)OC(C)(C)C(F)(F)F)C(=O)N4C3)nc2c1` [Compound 18] was run?
A: Its EC50 is 5.01 to 68 nM.

Q: What about the EC50 [2] of the same compound?
A: Its EC50 is 5.01 to 68 nM.

Q: With `CCOc1cnc(O[C@@H]2C[C@H]3C(=O)N[C@]4(C(=O)NS(=O)(=O)C5(C)CC5)C[C@H]4/C=C\[C@H](C)CCC[C@@H](C)[C@H](NC(=O)OC(C)(C)C(F)(F)F)C(=O)N3C2)c2ccccc12` [Compound 19, 1,1,1-trifluoro-2-methylpropan-2-yl (2R,6S,7R,11R,13aS,14aR,16aS,Z)-2-(4-ethoxyisoquinolin-1-yloxy)-7,11-dimethyl-14a-(1-methylcyclopropylsulfonylcarbamoyl)-5,16-dioxo-1,2,3,5,6,7,8,9,10,11,13a,14,14a,15,16,16a-hexadecahydrocyclopropa[e]pyrrolo[1,2-a][1,4]diazacyclopentadecin-6-ylcarbamate] as the compound, how does the EC50 [1] read?
A: Its EC50 is 2.01 to 5 nM.

Q: What about the EC50 [2] of the same compound?
A: Its EC50 is 1.01 to 2 nM.

Q: Which EC50 [1] does the source give for `COc1ccc2c(O[C@@H]3C[C@H]4C(=O)N[C@]5(C(=O)NS(=O)(=O)C6CC6)C[C@H]5/C=C\[C@H](C)CCC[C@@H](C)[C@H](NC(=O)OC(C)(C)C)C(=O)N4C3)ncc(OC)c2c1` [Compound 21, tert-butyl (2R,6S,7R,11R,13aS,14aR,16aS,Z)-14a-(cyclopropylsulfonylcarbamoyl)-2-(4,6-dimethoxyisoquinolin-1-yloxy)-7,11-dimethyl-5,16-dioxo-1,2,3,5,6,7,8,9,10,11,13a,14,14a,15,16,16a-hexadecahydrocyclopropa[e]pyrrolo[1,2-a][1,4]diazacyclopentadecin-6-ylcarbamate] here?
A: Its EC50 is 1.01 to 2 nM.

Q: And the EC50 [2]?
A: Its EC50 is 0.2 to 1 nM.

Q: With `COc1ccc2c(O[C@@H]3C[C@H]4C(=O)N[C@]5(C(=O)NS(=O)(=O)C6CC6)C[C@H]5/C=C\[C@H](C)CCC[C@@H](C)[C@H](NC(=O)OC(C)(C)C(F)(F)F)C(=O)N4C3)ncc(OC)c2c1` [Compound 22, 1,1,1-trifluoro-2-methylpropan-2-yl (2R,6S,7R,11R,13aS,14aR,16aS,Z)-14a-(cyclopropylsulfonylcarbamoyl)-2-(4,6-dimethoxyisoquinolin-1-yloxy)-7,11-dimethyl-5,16-dioxo-1,2,3,5,6,7,8,9,10,11,13a,14,14a,15,16,16a-hexadecahydrocyclopropa[e]pyrrolo[1,2-a][1,4]diazacyclopentadecin-6-ylcarbamate] as the compound, how does the EC50 [1] read?
A: Its EC50 is 1.01 to 2 nM.

Q: What about the EC50 [2] of the same compound?
A: The EC50 was 0.2 to 1 nM.

Q: `COc1cnc(O[C@@H]2C[C@H]3C(=O)N[C@]4(C(=O)NS(=O)(=O)C5CC5)C[C@H]4/C=C\[C@H](C)CCC[C@@H](C)[C@H](NC(=O)OC(C)(C)C)C(=O)N3C2)c2cc(F)ccc12` [Compound 23, tert-butyl (2R,6S,7R,11R,13aS,14aR,16aS,Z)-14a-(cyclopropylsulfonylcarbamoyl)-2-(7-fluoro-4-methoxyisoquinolin-1-yloxy)-7,11-dimethyl-5,16-dioxo-1,2,3,5,6,7,8,9,10,11,13a,14,14a,15,16,16a-hexadecahydrocyclopropa[e]pyrrolo[1,2-a][1,4]diazacyclopentadecin-6-ylcarbamate] was tested. Which EC50 [1] did it give?
A: Its EC50 is 5.01 to 68 nM.

Q: And the EC50 [2]?
A: The EC50 was 5.01 to 68 nM.

Q: `COc1cnc(O[C@@H]2C[C@H]3C(=O)N[C@]4(C(=O)NS(=O)(=O)C5CC5)C[C@H]4/C=C\[C@H](C)CCC[C@@H](C)[C@H](NC(=O)OC(C)(C)C(F)(F)F)C(=O)N3C2)c2cc(F)ccc12` [Compound 24, 1,1,1-trifluoro-2-methylpropan-2-yl (2R,6S,7R,11R,13aS,14aR,16aS,Z)-14a-(cyclopropylsulfonylcarbamoyl)-2-(7-fluoro-4-methoxyisoquinolin-1-yloxy)-7,11-dimethyl-5,16-dioxo-1,2,3,5,6,7,8,9,10,11,13a,14,14a,15,16,16a-hexadecahydrocyclopropa[e]pyrrolo[1,2-a][1,4]diazacyclopentadecin-6-ylcarbamate] was tested. Which EC50 [1] did it give?
A: Its EC50 is 5.01 to 68 nM.

Q: And the EC50 [2]?
A: Its EC50 is 5.01 to 68 nM.

Q: Which EC50 [1] does the source give for `COc1cnc(O[C@@H]2C[C@H]3C(=O)N[C@]4(C(=O)NS(=O)(=O)C5(C)CC5)C[C@H]4/C=C\[C@H](C)CCC[C@@H](C)[C@H](NC(=O)OC(C)(C)C(F)(F)F)C(=O)N3C2)c2cccc(Cl)c12` [Compound 25, 1,1,1-trifluoro-2-methylpropan-2-yl (2R,6S,7R,11R,13aS,14aR,16aS,Z)-2-(5-chloro-4-methoxyisoquinolin-1-yloxy)-7,11-dimethyl-14a-(1-methylcyclopropylsulfonylcarbamoyl)-5,16-dioxo-1,2,3,5,6,7,8,9,10,11,13a,14,14a,15,16,16a-hexadecahydrocyclopropa[e]pyrrolo[1,2-a][1,4]diazacyclopentadecin-6-ylcarbamate] here?
A: The EC50 was 1.01 to 2 nM.

Q: And the EC50 [2]?
A: The EC50 was 0.2 to 1 nM.

From US8691757B2 (Bristol-Myers Squibb Company, priority 2011, dated 2014)
